This assay addresses human Nav1.7 (Homo sapiens (Human), UniProt Q15858). Description: Nav 1.7 in vitro PatchXpress (PX) assay. The format is cell-based.

Like-named read-outs stand apart in the source and are kept apart here.

human Nav1.7, sequence (Q15858 whole entry): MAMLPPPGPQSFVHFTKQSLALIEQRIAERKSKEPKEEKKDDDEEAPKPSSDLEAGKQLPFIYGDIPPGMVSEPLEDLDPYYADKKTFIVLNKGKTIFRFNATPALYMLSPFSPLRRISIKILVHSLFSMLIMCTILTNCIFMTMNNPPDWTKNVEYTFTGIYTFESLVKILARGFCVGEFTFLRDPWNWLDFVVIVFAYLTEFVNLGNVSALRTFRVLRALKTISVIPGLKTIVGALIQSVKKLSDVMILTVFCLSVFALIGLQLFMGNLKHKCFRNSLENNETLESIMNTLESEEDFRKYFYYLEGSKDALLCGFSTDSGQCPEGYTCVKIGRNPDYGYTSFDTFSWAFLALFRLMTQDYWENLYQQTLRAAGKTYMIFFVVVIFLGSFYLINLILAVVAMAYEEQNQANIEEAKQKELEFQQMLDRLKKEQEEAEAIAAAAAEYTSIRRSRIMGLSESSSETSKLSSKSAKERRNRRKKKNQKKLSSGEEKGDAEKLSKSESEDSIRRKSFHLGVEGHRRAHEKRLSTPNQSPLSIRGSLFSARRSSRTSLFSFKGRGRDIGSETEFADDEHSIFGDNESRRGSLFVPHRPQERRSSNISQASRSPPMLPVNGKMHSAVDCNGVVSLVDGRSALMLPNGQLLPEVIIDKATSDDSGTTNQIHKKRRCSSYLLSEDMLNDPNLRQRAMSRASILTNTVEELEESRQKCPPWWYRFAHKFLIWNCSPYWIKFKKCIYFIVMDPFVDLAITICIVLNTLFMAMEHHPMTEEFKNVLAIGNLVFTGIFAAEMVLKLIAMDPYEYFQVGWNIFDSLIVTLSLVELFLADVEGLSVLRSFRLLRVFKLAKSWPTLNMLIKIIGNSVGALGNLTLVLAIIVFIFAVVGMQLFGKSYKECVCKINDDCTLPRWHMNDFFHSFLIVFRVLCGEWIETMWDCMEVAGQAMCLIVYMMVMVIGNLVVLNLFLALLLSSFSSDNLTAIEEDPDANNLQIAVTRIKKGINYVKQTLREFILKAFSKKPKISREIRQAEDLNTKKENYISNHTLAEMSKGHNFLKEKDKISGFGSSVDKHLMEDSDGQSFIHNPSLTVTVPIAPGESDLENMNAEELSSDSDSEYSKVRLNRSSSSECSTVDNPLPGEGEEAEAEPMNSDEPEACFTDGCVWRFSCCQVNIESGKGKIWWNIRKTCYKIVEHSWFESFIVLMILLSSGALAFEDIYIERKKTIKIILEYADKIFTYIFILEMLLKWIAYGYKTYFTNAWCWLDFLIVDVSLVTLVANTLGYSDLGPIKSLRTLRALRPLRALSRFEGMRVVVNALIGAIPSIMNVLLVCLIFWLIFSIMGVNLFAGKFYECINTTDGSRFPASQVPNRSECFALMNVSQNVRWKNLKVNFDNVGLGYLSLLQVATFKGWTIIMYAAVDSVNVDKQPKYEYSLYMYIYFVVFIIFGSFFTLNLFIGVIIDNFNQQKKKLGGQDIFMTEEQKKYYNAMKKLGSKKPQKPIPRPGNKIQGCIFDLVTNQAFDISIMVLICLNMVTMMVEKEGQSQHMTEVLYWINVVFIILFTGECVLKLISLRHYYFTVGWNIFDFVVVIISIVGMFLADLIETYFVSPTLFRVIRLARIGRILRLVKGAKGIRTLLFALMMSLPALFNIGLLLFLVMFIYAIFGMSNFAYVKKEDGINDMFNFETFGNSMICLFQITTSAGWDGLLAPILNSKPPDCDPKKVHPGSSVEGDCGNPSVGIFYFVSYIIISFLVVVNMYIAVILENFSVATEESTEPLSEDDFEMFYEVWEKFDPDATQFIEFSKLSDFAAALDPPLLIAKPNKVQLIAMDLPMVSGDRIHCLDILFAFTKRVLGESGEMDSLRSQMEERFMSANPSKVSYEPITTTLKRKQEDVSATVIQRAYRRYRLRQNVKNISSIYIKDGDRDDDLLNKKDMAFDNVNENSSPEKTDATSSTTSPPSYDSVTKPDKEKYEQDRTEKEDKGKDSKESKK

As for `CS(=O)(=O)NC(=O)c1ccc(-c2cnc(Oc3cc(Cl)cc(Cl)c3)c(Cl)c2)c(OC(F)F)c1` [Example 461, 4-(5-chloro-6-(3,5-dichlorophenoxy)-3-pyridinyl)-3-(difluoromethoxy)-N-(methylsulfonyl)benzamide], the 50% inhibitory concentration (IC50) (as a rule, the concentration that gives 50% inhibition) amounted to 33.7 nM.

Regarding `COc1cc(C(=O)NS(C)(=O)=O)ccc1-c1cnc(Oc2cc(Cl)cc(Cl)c2)c(C=O)c1` [Example 822, 4-(6-(3,5-Dichlorophenoxy)-5-Formylpyridin-3-yl)-3-Methoxy-N-(Methylsulfonyl)Benzamide], it took 151 nM to reach half-maximal inhibition (in-vitro Nav 1.7 PX data) (IC50).

The compound `CS(=O)(=O)NC(=O)c1cc(Cl)c(-c2cnc(OCC3CCCC3)c(Cl)c2)cc1F` [Example 600, 5-chloro-4-(5-chloro-6-(cyclopentylmethoxy)-3-pyridinyl)-2-fluoro-N-(methylsulfonyl)benzamide] displayed an IC50 of 91.9 nM.

`COc1cc(C(=O)NS(C)(=O)=O)ccc1-c1cnc(Oc2c(Cl)cccc2Cl)c(Cl)c1` [Example 581, 4-(5-chloro-6-(2,6-dichlorophenoxy)-3-pyridinyl)-3-methoxy-N-(methylsulfonyl)benzamide] displayed an IC50 of 84.6 nM.

`COc1ccc(Cl)c(Oc2ncc(-c3ccc(C(=O)NS(C)(=O)=O)cc3OC)cc2Cl)c1` [Example 369, 4-(5-chloro-6-(2-chloro-5-methoxyphenoxy)-3-pyridinyl)-3-methoxy-N-(methylsulfonyl)benzamide]: the IC50 stood at 90.5 nM.

The compound `Cc1cc(C(=O)NS(C)(=O)=O)c(F)cc1-c1cnc(Oc2cccc(F)c2F)c(Cl)c1` [Example 604, 4-(5-chloro-6-(2,3-difluorophenoxy)-3-pyridinyl)-2-fluoro-5-methyl-N-(methylsulfonyl)benzamide] came in with an IC50 of 109 nM.

Compound `COc1cc(C(=O)NS(C)(=O)=O)ccc1-c1cnc(Oc2ccc(Cl)c(Cl)c2)c(C#N)c1` [Example 692, 4-(5-cyano-6-(3,4-dichlorophenoxy)-3-pyridinyl)-3-methoxy-N-(methylsulfonyl)benzamide] had an IC50 of 60.3 nM.

In turn, `Cc1cc(C(=O)NS(=O)(=O)C2CC2)c(F)cc1-c1cnc(OC2CCC2)c(Cl)c1` [Example 797, 4-(5-chloro-6-(cyclobutyloxy)-3-pyridinyl)-N-(cyclopropylsulfonyl)-2-fluoro-5-methylbenzamide] displayed an IC50 (in-vitro Nav 1.7 PX data) of 98.8 nM.

On to `Cc1cc(C(=O)NS(C)(=O)=O)c(F)cc1-c1cnc(OCCC2CC2)c(Cl)c1` [Example 683, 4-(5-chloro-6-(2-cyclopropylethoxy)-3-pyridinyl)-2-fluoro-5-methyl-N-(methylsulfonyl)benzamide], for which it took 111 nM to reach half-maximal inhibition (IC50).

`Cc1cc(Cl)cc(Cl)c1Oc1ncc(-c2cc(F)c(C(=O)NS(C)(=O)=O)cc2OC(F)F)cc1Cl` [Example 782, 4-(5-chloro-6-(2,4-dichloro-6-methylphenoxy)-3-pyridinyl)-5-(difluoromethoxy)-2-fluoro-N-(methylsulfonyl)benzamide] gave an IC50 (in-vitro Nav 1.7 PX data) of 16.1 nM.

On to `Cc1cc(C(=O)NS(C)(=O)=O)c(F)cc1-c1cnc(Oc2cccc(C(F)(F)F)c2C)c(Cl)c1` [Example 677, 4-(5-chloro-6-(2-methyl-3-(trifluoromethyl)phenoxy)-3-pyridinyl)-2-fluoro-5-methyl-N-(methylsulfonyl)benzamide], for which the midpoint of inhibition, the IC50, lay at 83.7 nM.

In turn, `Cc1ccc(Cl)c(Oc2ncc(-c3ccc(C(=O)NS(C)(=O)=O)cc3OC(F)F)cc2Cl)c1` [Example 462, 4-(5-chloro-6-(2-chloro-5-methylphenoxy)-3-pyridinyl)-3-(difluoromethoxy)-N-(methylsulfonyl)benzamide] came in with an IC50 of 68.3 nM.

`COc1cc(C(=O)NS(C)(=O)=O)c(F)cc1-c1cnc(Oc2c(C)cccc2Cl)c(Cl)c1` [Example 748, 4-(5-chloro-6-(2-chloro-6-methylphenoxy)-3-pyridinyl)-2-fluoro-5-methoxy-N-(methylsulfonyl)benzamide] gave an IC50 (in-vitro Nav 1.7 PX data) of 76.4 nM.

On to `Cc1cc(C(=O)NS(C)(=O)=O)c(F)cc1-c1cnc(OC(C(F)(F)F)C(F)(F)F)c(Cl)c1` [Example 686, 4-(5-chloro-6-(2,2,2-trifluoro-1-(trifluoromethyl)ethoxy)-3-pyridinyl)-2-fluoro-5-methyl-N-(methylsulfonyl)benzamide], for which it took 115 nM to reach half-maximal inhibition (IC50).

Where the note is “in-vitro Nav 1.7 PX data”, `COc1cc(C(=O)NS(C)(=O)=O)c(F)cc1-c1cnc(Oc2cc3ccccc3cc2Cl)c(Cl)c1` [Example 715, 4-(5-chloro-6-((3-chloro-2-naphthalenyl)oxy)-3-pyridinyl)-2-fluoro-5-methoxy-N-(methylsulfonyl)benzamide] showed an IC50 of 98.8 nM.

As to `COc1cc(C(=O)NS(C)(=O)=O)c(F)cc1-c1cnc(O[C@H](C)C2CCC2)c(Cl)c1` (single isomer, unassigned) [Example 769], for the setting “in-vitro Nav 1.7 PX data”, the midpoint of inhibition, the IC50, lay at 50 nM.

`COc1cc(C(=O)NS(C)(=O)=O)c(F)cc1-c1cnc(Oc2ccc(F)c(Cl)c2)c(Cl)c1` [Example 741, 4-(5-chloro-6-(3-chloro-4-fluorophenoxy)-3-pyridinyl)-2-fluoro-5-methoxy-N-(methylsulfonyl)benzamide]: 56 nM corresponded to half-maximal inhibition (in-vitro Nav 1.7 PX data) (IC50).

`COc1cc(C(=O)NS(C)(=O)=O)ccc1-c1cnc(Oc2ccc(Cl)cc2Cl)c(C#N)c1` [Example 691, 4-(5-cyano-6-(2,4-dichlorophenoxy)-3-pyridinyl)-3-methoxy-N-(methylsulfonyl)benzamide] yielded an IC50 of 83.8 nM.

With `COc1cc(C(=O)NS(C)(=O)=O)c(F)cc1-c1cnc(Oc2c(F)ccc(Cl)c2F)c(Cl)c1` [Example 744, 4-(5-chloro-6-(3-chloro-2,6-difluorophenoxy)-3-pyridinyl)-2-fluoro-5-methoxy-N-(methylsulfonyl)benzamide], for the setting “in-vitro Nav 1.7 PX data”, the IC50 was determined as 67.8 nM.

The compound `COc1cc(C(=O)NS(C)(=O)=O)c(F)cc1-c1cnc(Oc2c(Cl)cccc2Cl)c(Cl)c1` [Example 764, 4-(5-chloro-6-(2,6-dichlorophenoxy)-3-pyridinyl)-2-fluoro-5-methoxy-N-(methylsulfonyl)benzamide] had an IC50 (in-vitro Nav 1.7 PX data) of 36.7 nM.

For `COc1cc(C(=O)NS(C)(=O)=O)c(F)cc1-c1cnc(Oc2ccc(F)c3c2CCC3)c(Cl)c1` [Example 757, 4-(5-chloro-6-((7-fluoro-2,3-dihydro-1H-inden-4-yl)oxy)-3-pyridinyl)-2-fluoro-5-methoxy-N-(methylsulfonyl)benzamide], 47.7 nM corresponded to half-maximal inhibition (in-vitro Nav 1.7 PX data) (IC50).

Compound `Cc1cc(Oc2ncc(-c3ccc(C(=O)NS(C)(=O)=O)cc3OC3COC3)cc2Cl)ccc1Cl` [Example 413, 4-(5-chloro-6-(4-chloro-3-methylphenoxy)-3-pyridinyl)-N-(methylsulfonyl)-3-(3-oxetanyloxy)benzamide] yielded an IC50 of 46.1 nM.

For `Cc1ccc(Oc2ncc(-c3ccc(C(=O)NS(C)(=O)=O)cc3OC(F)F)cc2Cl)c(Cl)c1` [Example 465, 4-(5-chloro-6-(2-chloro-4-methylphenoxy)-3-pyridinyl)-3-(difluoromethoxy)-N-(methylsulfonyl)benzamide], the midpoint of inhibition, the IC50, lay at 69.7 nM.

On to `Cc1ccc(Oc2ncc(-c3ccc(C(=O)NS(C)(=O)=O)cc3OC3COC3)cc2Cl)cc1Cl` [Example 425, 4-(5-chloro-6-(3-chloro-4-methylphenoxy)-3-pyridinyl)-N-(methylsulfonyl)-3-(3-oxetanyloxy)benzamide], for which 32.2 nM corresponded to half-maximal inhibition (IC50).

`COc1cc(C(=O)NS(C)(=O)=O)c(F)cc1-c1cnc(OC(C)C2CCC2)c(Cl)c1` (stereo not drawn) [Example 719, 4-(5-Chloro-6-(1-Cyclobutylethoxy)Pyridin-3-yl)-2-Fluoro-5-Methoxy-N-(Methylsulfonyl)Benzamide] displayed an IC50 (in-vitro Nav 1.7 PX data) of 89 nM.

`Cc1cc(Cl)cc(Cl)c1Oc1ncc(-c2cc(F)c(C(=O)NS(C)(=O)=O)cc2Cl)cc1Cl` [Example 598, 5-chloro-4-(5-chloro-6-(2,4-dichloro-6-methylphenoxy)-3-pyridinyl)-2-fluoro-N-(methylsulfonyl)benzamide] came in with an IC50 of 18.4 nM.

`COc1cc(C(=O)NS(C)(=O)=O)ccc1-c1cnc(Oc2cccc(Cl)c2C)c(C#N)c1` [Example 690, 4-(6-(3-chloro-2-methylphenoxy)-5-cyano-3-pyridinyl)-3-methoxy-N-(methylsulfonyl)benzamide] gave an IC50 of 46.9 nM.

On to `CS(=O)(=O)NC(=O)c1ccc(-c2cnc(Oc3ccccc3C(F)(F)F)c(Cl)c2)c(OC(F)F)c1` [Example 464, 4-(5-chloro-6-(2-(trifluoromethyl)phenoxy)-3-pyridinyl)-3-(difluoromethoxy)-N-(methylsulfonyl)benzamide], for which the IC50 is 92.4 nM.

Turning to `COc1cc(C(=O)NS(C)(=O)=O)c(F)cc1-c1cnc(SCc2cc(F)ccc2F)c(Cl)c1` [Example 730, 4-(5-chloro-6-((2,5-difluorobenzyl)sulfanyl)-3-pyridinyl)-2-fluoro-5-methoxy-N-(methylsulfonyl)benzamide], the IC50 (in-vitro Nav 1.7 PX data) is 58.5 nM.

`COc1cc(C(=O)NS(C)(=O)=O)c(F)cc1-c1cnc(OCC2(C)CCCCC2)c(Cl)c1` [Example 714, 4-(5-chloro-6-((1-methylcyclohexyl)methoxy)-3-pyridinyl)-2-fluoro-5-methoxy-N-(methylsulfonyl)benzamide] returned an IC50 (in-vitro Nav 1.7 PX data) of 98.6 nM.

`C[C@@H](Oc1ncc(-c2ccc(C(=O)NS(C)(=O)=O)cc2OC(F)F)cc1Cl)c1ccccc1` [Example 455, 4-(5-chloro-6-((1R)-1-phenylethoxy)-3-pyridinyl)-3-(difluoromethoxy)-N-(methylsulfonyl)benzamide] returned a concentration for half-maximal inhibition (IC50) of 58 nM.

With `Cc1cc(C(=O)NS(C)(=O)=O)c(F)cc1-c1cnc(O[C@H](C)c2ccccc2C(F)(F)F)c(Cl)c1` [Example 688, 4-(5-chloro-6-((1R)-1-(2-(trifluoromethyl)phenyl)ethoxy)-3-pyridinyl)-2-fluoro-5-methyl-N-(methylsulfonyl)benzamide, 4-(5-chloro-6-((1S)-1-(2-(trifluoromethyl)phenyl)ethoxy)-3-pyridinyl)-2-fluoro-5-methyl-N-(methylsulfonyl)benzamide], the IC50 amounted to 86.3 nM.

In turn, `COc1cc(C(=O)NS(C)(=O)=O)ccc1-c1cnc(Oc2cc(Cl)ccc2Cl)c(Cl)c1` [Example 582, 4-(5-chloro-6-(2,5-dichlorophenoxy)-3-pyridinyl)-3-methoxy-N-(methylsulfonyl)benzamide] had an IC50 of 61.4 nM.

For the origin of these results see patent US9663508B2, “Biaryl acyl-sulfonamide compounds as sodium channel inhibitors” (AMGEN INC., priority 2013, dated 2017).
